This is an account of results in patent US20240101573A1, “MACROCYCLIC K-RAS G12C INHIBITOR, PREPARATION METHOD THEREFOR AND USE THEREOF” (Abbisko Therapeutics Co., Ltd., priority 2020, published 2024).

A word on the IC50: it is the midpoint of a concentration-inhibition curve.

One test concerns MIA PaCa-2. In words: Anti-proliferation 2D CTG test (MIA PaCa-2). Conditions: MIAPACA-2 cells, 500 cells/well, 5 days incubation with compound, CTG readout. Format: cell-based. As to the method: (§1) When the cell confluency was 80%, the cells were isolated with 0.25% trypsin. The isolated cells were resuspended in 5 mL of fresh cell culture medium and centrifuged to collect the cells. The number of cells were counted at the same time. Then, the cells were suspended in a culture medium at a moderate concentration. The cells were placed into a 96-well plate with 1500 cells/well for H358 and 500 cells/well for MIAPACA-2. The 96-well plate was placed in an incubator at 37° C. and incubated overnight.
(§2) 2) Day 1: processing of compound
(§3) A 2 mM stock solution was serially diluted at 10 points at a ratio of 1:3. 5× culture medium containing the compound was transferred to the corresponding wells of 96 wells. The final peak concentration of the compound was […], and the final concentration of DMSO was 0.5%. The 96-well plate was placed in the incubator at 37° C. and incubated for 5 days.
(§4) 3) Baseline reading. 4) Day 6: reading of signals
(§5) A detection reagent (CTG) was added at 50 μL/well, and the signals were read in an Envision instrument.
(§6) The percentage of inhibition ([…]) at each compound concentration was calculated based on the signals from the HPE and ZPE control wells contained in each assay plate and the fluorescence signals from individual compound wells. The inhibition rate in the ZPE control wells containing the enzyme and substrate was 0%, and the inhibition rate in the HPE control wells only containing the substrate was […]. By testing the compound in terms of numeric concentration and inhibition percentage, the compound concentration required for […] inhibition (IC50) was determined using a four-parameter logarithmic dose-response equation. The endpoint value (IC50) of the reference compound was evaluated in each experiment as a quality control measure. If the endpoint value was within three times the expected value, the experiment was considered acceptable.

The test system of another test is H358. In words: Anti-proliferation 2D CTG test (H358). Format: cell-based. Conditions: H358 cells, 1500 cells/well, 5 days incubation with compound, CTG readout. As to the method:
as §1, §2, §3, §4, §5, §6

Setting [1] is: Homo sapiens, MIA PaCa-2, 120 h.

For `C=CC(=O)N1CCN(c2nc(=O)n3c4nc(c(F)cc24)-c2c(F)cccc2OCC2OC(=O)OC2c2ccnc(C(C)C)c2-3)[C@@H](C)C1` (stereo partly drawn) [Example 62, 11-((S)-4-acryloyl-2-methylpiperazin-1-yl)-15,21-difluoro-7-isopropyl-3a,20a-dihydro-9H,20H-12,14-(epiethane[1,2]diylidene)benzo[b][1,3]dioxazolo[4,5-j]pyrido[3,4-h]pyrimido[6,1-f][1]oxa[5,7]diazacyclodidecyne-2,9-dione], the half-inhibitory concentration (IC50) with MIA PaCa-2 (setting [1]) was 16 nM; in the test on H358 (Homo sapiens, NCI-H358, 120 h), 20 nM.
For `C=CC(=O)N1CCN(c2nc(=O)n3c4nc(c(F)cc24)-c2c(F)cccc2OCC(OC(=O)C(C)C)C(OC(=O)C(C)C)c2ccnc(C(C)C)c2-3)[C@@H](C)C1` (stereo partly drawn) [Example 13, 2^4-((S)-4-acryloyl-2-methylpiperazin-1-yl)-2^6,3^6-difluoro-1^2-isopropyl-2^2-oxo-2^1,2^2-dihydro-4-oxa-2(1,7)-pyrido[2,3-d]pyrimidina-1(3,4)-pyridina-3(1,2)-benzocycloheptane-6,7-diyl di(2-methylpropionate)], in that order: 5 nM and 5 nM.
For `C=CC(=O)N1CCN(c2nc(=O)n3c4nc(c(F)cc24)-c2c(F)cccc2OCC(O)C(=O)c2ccnc(C(C)C)c2-3)[C@@H](C)C1` (stereo partly drawn) [Example 4, 2^4-((S)-4-acryloyl-2-methylpiperazin-1-yl)-2^6,3^6-difluoro-6-hydroxy-1^2-isopropyl-2^1,2^2-dihydro-4-oxa-2(1,7)-pyrido[2,3-d]primidina-1(3,4)-pyridina-3(1,2)-benzocycloheptane-2^2,7-dione], in that order: 83 nM and 73 nM.
On to `C=CC(=O)N1CCN(c2nc(=O)n3c4nc(c(F)cc24)-c2c(F)cccc2OCC(OCC(F)F)C(O)c2ccnc(C(C)C)c2-3)[C@@H](C)C1` (stereo partly drawn) [Example 54, (S)-2^4-((S)-4-acryloyl-2-methylpiperazin-1-yl)-6-(2,2-difluoroethoxy)-2^6,3^6-difluoro-7-hydroxy-1^2-isopropyl-2^1,2^2-dihydro-4-oxa-2(1,7)-pyrido[2,3-d]pyrimidina-1(3,4)-pyridina-3(1,2)-benzocycloheptane-2^2-one], for which the IC50 is 708 nM with MIA PaCa-2 and 830 nM with H358.
For the compound `C=CC(=O)N1CCN(c2nc(=O)n3c4nc(c(F)cc24)-c2c(F)cccc2OCC(O)C(OC(=O)OC(C)(C)C)c2ccnc(C(C)C)c2-3)[C@@H](C)C1` (stereo partly drawn) [Example 11, 2^4-((S)-4-acryloyl-2-methylpiperazin-1-yl)-2^6,3^6-difluoro-6-hydroxy-1^2-isopropyl-2^2-oxo-2^1,2^2-dihydro-4-oxa-2(1,7)-pyrido[2,3-d]pyrimidina-1(3,4)-pyridina-3(1,2)-benzocycloheptane-7-yl tert-butylcarbonate], the IC50 in the test with MIA PaCa-2 (setting [1]) is 21 nM; in the test on H358 (Homo sapiens, NCI-H358, 120 h), 26 nM.
For `C=CC(=O)N1CCN(c2nc(=O)n3c4nc(c(F)cc24)-c2c(F)cccc2OCC2OC(C)(C)OC2c2ccnc(C(C)C)c2-3)[C@@H](C)C1` (stereo partly drawn) [Example 63, 11-((S)-4-acryloyl-2-methylpiperazin-1-yl)-15,21-difluoro-7-isopropyl-2,2-dimethyl-3a,20a-dihydro-9H,20H-12,14-(eiethane[1,2]diylidene)benzo[b][1,3]dioxazolo[4,5-j]pyrido[3,4-h]pyrimido[6,1-f][1]oxa[5,7]diazacyclododecin-9-one], in that order: 4 nM and 4 nM.
For the compound `C=CC(=O)N1C[C@H](C)N(c2nc(=O)n3c4nc(c(F)cc24)-c2c(F)cccc2OCC(O)C(OC(C)=O)c2ccnc(C(C)C)c2-3)C[C@H]1C` (stereo partly drawn) [Example 8, 2^4-((2S,5R)-4-acryloyl-2,5-dimethylpiperazin-1-yl)-2^6,3^6-difluoro-6-hydroxy-1^2-isopropyl-2^2-oxo-2^1,2^2-dihydro-4-oxa-2(1,7)-pyrido[2,3-d]pyrimidina-1(3,4)-pyridina-3(1,2)-benzocycloheptane-7-yl acetate], the IC50 with MIA PaCa-2 (setting [1]) worked out at 3 nM; with H358 (Homo sapiens, NCI-H358, 120 h), 9 nM.
As to “2^4-((S)-4-acryloyl-2-methylpiperazin-1-yl)-2^6,3^6-difluoro-7-hydroxy-1^2-isopropyl-2^1,2^2-dihydro-4-oxa-2(1,7)-pyrido[2,3-d]pyrimidina-1(3,4)-pyridina-3(1,2)-benzocycloheptane-2^2-one [Example 5]”, the IC50 in the test with MIA PaCa-2 came out at 20 nM; in the test with H358, 19 nM.
As to `C=CC(=O)N1CCN(c2nc(=O)n3c4nc(c(F)cc24)-c2c(ccc(Cl)c2F)OCC(O)C(OCC)c2ccnc(C(C)C)c2-3)[C@@H](C)C1` (stereo partly drawn) [Example 72, (R)-2^4-((S)-4-acryloyl-2-methylpiperazin-1-yl)-3^5-chloro-7-ethoxy-2^6,3^6-difluoro-6-hydroxy-1^2-isopropyl-2^1,2^2-dihydro-4-oxa-2(1,7)-pyrido[2,3-d]pyrimidina-1(3,4)-pyridina-3(1,2)-benzocycloheptane-2^2-one], the IC50 in the test with MIA PaCa-2 was 6 nM; in the test with H358, 7 nM.
As to `C=CC(=O)N1C[C@H](C)N(c2nc(=O)n3c4nc(c(F)cc24)-c2c(ccc(Cl)c2F)OCC(OCC)C(O)c2ccnc(C(C)C)c2-3)C[C@H]1C` (stereo partly drawn) [Example 71, 2^4-((2S,5R)-4-acryloyl-2,5-dimethylpiperazin-1-yl)-3^5-chloro-6-ethoxy-2^6,3^6-difluoro-7-hydroxy-1^2-isopropyl-2^1,2^2-dihydro-4-oxa-2(1,7)-pyrido[2,3-d]pyrimidina-1(3,4)-pyridina-3(1,2)-benzocycloheptane-2^2-one], the IC50 amounted to 3 nM in the test with MIA PaCa-2 and 8 nM in the test on H358.
In the case of `C=CC(=O)N1CCN(c2nc(=O)n3c4nc(c(F)cc24)-c2c(F)cccc2OCC(OC(C)C)C(O)c2ccnc(C(C)C)c2-3)[C@@H](C)C1` (stereo partly drawn) [Example 34, 2^4-((S)-4-acryloyl-2-methylpiperazin-1-yl)-6-isopropoxy-2^6,3^6-difluoro-7-hydroxy-1^2-isopropyl-2^1,2^2-dihydro-4-oxa-2(1,7)-pyrido[2,3-d]pyrimidina-1(3,4)-pyridina-3(1,2)-benzocycloheptane-2^2-one], the IC50 in the test on MIA PaCa-2 was 7 nM; in the test on H358, 4 nM.
Consider `C=CC(=O)N1CCN(c2nc(=O)n3c4nc(c(F)cc24)-c2c(ccc(Cl)c2F)OCC(O)C(O)c2ccnc(C(C)C)c2-3)[C@@H](C)C1` (stereo partly drawn) [Example 67, (S)-2^4-((S)-4-acryloyl-2-methylpiperazin-1-yl)-3^5-chloro-2^6,3^6-difluoro-6,7-dihydroxy-1^2-isopropyl-2^1,2^2-dihydro-4-oxa-2(1,7)-pyrido[2,3-d]pyrimidina-1(3,4)-pyridina-3(1,2)-benzocycloheptane-2^2-one], for which the IC50 in the test with MIA PaCa-2 stood at 859 nM; in the test on H358, 1320 nM.
For `C=CC(=O)N1C[C@H](C)N(c2nc(=O)n3c4nc(c(F)cc24)-c2c(F)cccc2OCC(O)C(O)c2ccnc(C(C)C)c2-3)C[C@H]1C` (stereo partly drawn) [Example 2, (R)-2^4-((2S,5R)-4-acryloyl-2,5-dimethylpiperazin-1-yl)-2^6,3^6-difluoro-6,7-dihydroxy-1^2-isopropyl-2^1,2^2-dihydro-4-oxa-2(1,7)-pyrido[2,3-d]pyrimidina-1(3,4)-pyridina-3(1,2)-benzocycloheptane-2^2-one], in that order: 1 nM and 2 nM.
